Values joined by “and” are separate entries in the source; they are usually repeats but may differ in a detail not shown here. Identical values can stand only once.
Experiments:
[1] = tested on: Escherichia coli (E. coli - ATCC #10536); assay: Synergy test: high resolution MBC microtiter plate assay in phosphate buffer containing 35% dipropylene glycol, 15 seconds contact; assay type: cell-based; conditions: for SI (Synergy Index = Qa/QA + Qb/QB): E. coli 10536, less than one = synergy, one = additivity, greater than one = antagonism
Description: One measure of synergy is the industrially accepted method described by Kull, F. C.; Eisman, P. C.; Sylwestrowicz, M. D, and Mayer, R. L., in Applied Microbiology 9:538-541 (1961), using the ratio determined by the formula: Qa/QA+Qb/QB=Synergy Index (“SI”) wherein; QA=concentration of compound A (first component) in percent, acting alone, which produced an end point (MBC of Compound A), Qa=concentration of compound A in percent, in the mixture, which produced an end point. QB=concentration of compound B (second component) in percent, acting alone, which produced an end point (MBC of Compound B). Qb=concentration of compound B in percent, in the mixture, which produced an end point.
When the sum of Qa/QA and Qb/QB is greater than one, antagonism is indicated. […] The lower the SI, the greater is the synergy shown by that particular mixture. The minimum biocidal concentration (MBC) of a microbicide is the lowest concentration tested under a specific set of conditions that provides complete kill of the tested microorganisms.
Synergy tests were conducted using standard microliter plate assays with phosphate buffer containing 35% dipropylene glycol (DPG). In this method, a wide range of combinations of chemicals was tested by conducting high resolution. MBC assays of Component (A) in the presence of various concentrations of Component (B). High resolution MBCs were determined by adding varying amounts of microbicide to one column of a microliter plate and doing subsequent […] dilutions using an automated liquid handling system to obtain a series of closely spaced endpoints. The MBC plate was inoculated one column at a time with the test microorganism. An aliquot of the inoculated well was transferred at 15 seconds to a plate containing a neutralizing agent (EVE Neutralizing Broth), mixed and held for 5 minutes before being transferred to a growth plate containing trypticase soy broth (TSB). The TSB plate was incubated at 37° C. and read for the presence/absence of growth at 24 hours. The lowest level tested that provided complete kill (as evidenced by no growth in the microtitre plate) of the test organisms in 15 seconds is the minimum biocidal concentration (MBC).
The synergy of the combinations of the present invention was determined against a bacterium, Escherichia coli (E. coli—ATCC #10536), at a concentration of approximately 1×10^8 bacteria per mL. This microorganism is representative of natural contaminants in many consumer and industrial applications.

[2] = tested on: Escherichia coli (E. coli - ATCC #10536); assay: Automated assessment of efficacy in surfactant base (2.85% sodium cocoyl glycinate + 1.85% sodium lauroamphoacetate, pH 10), 15 seconds exposure; assay type: cell-based; conditions: for MBC (% w/v): in 2.85% sodium cocoyl glycinate + 1.85% sodium lauroamphoacetate solution at pH 10, E. coli, 15 seconds exposure; for Δ OD 450 nm = OD450 (time zero) − OD450 (time = 16 hours), Mean / Δ OD 590 nm OD590 (time = 16 hours) − OD590 (time zero), Mean / No. of replicates showing growth (out of 4): model surfactant solution pH 10, 15 s exposure; for Δ OD 450 nm = OD450 (time zero) − OD450 (time = 16 hours), Mean / Δ OD 590 nm OD590 (time = 16 hours) − OD590 (time zero), Mean: 4 replicates
Method: In these examples, the efficacy of combinations of actives were tested in a surfactant cleansing formulation comprising 2.85% sodium cocoyl glycinate and 1.85% sodium lauroamphoacetate.
This corresponds to a 50% in use dilution with water of a neat formulation containing 5.7% cocoyl glycinate and 3.7% sodium lauroamphoacetate during hand washing.
Solutions were prepared such that the concentrations of the surfactant components and test actives were 1.1× the final desired concentration in order to allow for dilution with the bacterial inoculum in the test. The solutions were manually adjusted to pH 10.0 by dropwise addition of sodium hydroxide solution, as measured with a pH meter at ambient temperature.
The efficacy of the combinations of the present invention was determined against Escherichia coli (E. coli—ATCC #10536), at a concentration of approximately 1×10^8 bacteria per mL.
Tests were conducted using standard microliter plate assays using an automated liquid handling system. 270 μl of the surfactant test solution was pipetted into each well of the microtitre plate and 30 μl of the bacterial suspension was then added. After exactly 15 seconds of bacterial exposure, a 30 μl volume of bacterial cells was withdrawn and transferred to 270 μl of D/E quench solution. After 5 minutes in the D/E quench, the optical density (OD) was measured for each plate in turn at two specific wavelengths (450 nm and 590 nm). These provide a dual check of antimicrobial activity, as the OD450 reading is specific for the yellow colour of D/E quench when bacterial growth is observed, whereas OD590 is specific for the initial purple colour of the D/E quench which is retained if no bacterial growth is observed. After the time zero OD measurements, plates were then incubated at 37° C. overnight (16 hours) before repeating the OD measurements. Delta CD values were calculated by subtracting […] the initial value at time zero. Bacterial growth is observed as an increase in OD450 and a decrease in ΔOD590. To identify antibacterially efficacious systems (those preventing appreciable bacterial growth after incubation), the following threshold changes in OD readings have been adopted: if (1), OD450 increases by less than 0.2 absorbance unit on incubation and (2), OD590 decreases by less than 0.35 unit on incubation. Conversely, where OD450 increases by more than 0.2 AU and OD590 decreases by more than 0.35 unit after incubation, corresponding to a colour shift from purple to yellow, the test system allows bacterial growth and is not deemed efficacious. Four replicate measurements in the same plate have been made for each test system. The number of replicate wells showing either bacterial growth or no growth is also readily assessed by eye by following the colour change.
Dose responses for individual components and binary mixtures of actives at a fixed concentration ratio were generated by sequential dilution of liquors with further surfactant solution to obtain a series of endpoints.
In some selected cases, the combinations were also tested at the weight ratio 1.1.

[3] = E. coli 10536, complete kill in 15 seconds, phosphate buffer with 35% DPG

| SMILES | SI (Synergy Index = Qa/QA + Qb/QB) [1] | MBC (% w/v) [2] | Δ OD 450 nm = OD450 (time zero) − OD450 (time = 16 hours), Mean ([2]; single active at 0.2% w/v) | Δ OD 590 nm OD590 (time = 16 hours) − OD590 (time zero), Mean ([2]; single active at 0.2% w/v) | QA: concentration of first component (A) acting alone which produced an end point (MBC of Compound A); Qa with Qb = 0 [1, 3] | other results |
| --- | --- | --- | --- | --- | --- | --- |
| C=CC(C)(O)CCC=C(C)C (racemic) [3,7-dimethylocta-1,6-dien-3-ol] | 1.0 | >0.5 % w/v | −0.53 | 0.60 | – | QB: concentration of second component (B) acting alone which produced an end point (MBC of Compound B); Qb with Qa = 0 [1, 3]: 0.5 weight %; Δ OD 450 nm = OD450 (time zero) − OD450 (time = 16 hours), Mean ([2]; single active at 0.5% w/v): −0.30; Δ OD 590 nm OD590 (time = 16 hours) − OD590 (time zero), Mean ([2]; single active at 0.5% w/v): 0.50 |
| Oc1ccccc1C1CCCC1 [2-cyclopentylphenol] | 1.00 | >0.2 % w/v | – | – | 0.2 weight % and 0.6 weight % and 0.3 weight % | – |
| Oc1ccccc1Cc1ccccc1 [2-hydroxydiphenylmethane] | 1.00 | >0.2 % w/v | −0.51 | 0.63 | 0.8 weight % and 1.0 weight % and 0.6 weight % | No. of replicates showing growth (out of 4) ([2]; single active at 0.1% w/v): 4; Δ OD 450 nm = OD450 (time zero) − OD450 (time = 16 hours), Mean ([2]; single active at 0.1% w/v): −0.51; Δ OD 590 nm OD590 (time = 16 hours) − OD590 (time zero), Mean ([2]; single active at 0.1% w/v): 0.62; No. of replicates showing growth (out of 4) ([2]; single active at 0.2% w/v): 4; No. of replicates showing growth (out of 4) ([2]; single active at […] w/v): 4; Δ OD 450 nm = OD450 (time zero) − OD450 (time = 16 hours), Mean ([2]; single active at […] w/v): −0.49; Δ OD 590 nm OD590 (time = 16 hours) − OD590 (time zero), Mean ([2]; single active at […] w/v): 0.64 |
| Cc1ccc(C(C)C)c(O)c1O [3-isopropyl-6-methylbenzene-1,2-diol] | 1.00 | – | – | – | 0.8 weight % and 1.0 weight % | – |
| Cc1cc(O)c(C(C)C)cc1Cl [4-chloro-2-isopropyl-5-methylphenol, reference compound] | – | >0.2 % w/v | – | – | – | – |
| Cc1cc(O)cc(C)c1Cl [4-chloro-3,5-dimethylphenol] | 1.00 | >0.2 % w/v | – | – | 0.6 weight % and 0.3 weight % | – |

— patent publication US9320272B2, “Microbial composition” (Rohm and Haas Company, priority 2011, dated 2016)
